Assay results from US8637558B2 (Industry-Academic Cooperation Foundation, Chosun University, priority 2008, dated 2014).

molecular target: 15-PGDH (Homo sapiens (Human), UniProt P15428); assay: Assay for the activities of 15-PGDH inhibitors (formation of NADH at 340 nm); format: biochemical; conditions: purified 15-PGDH enzyme, 21 μM PGE2, 0.25 mM NAD+, pH 7.5; concentration inhibiting 50% of 15-PGDH activity
Description: <1-1> Expression and Purification of 15-PGDH
A 15-PGDH cDNA plasmid containing BamHI and EcoRI sites of the pGES-2T expression vector was used to transform Escherichia coli BL-21 lysS in accordance with the ordinarily used in the art. The transformed cells were grown in 500 mL LB medium containing 50 μg/mL ampicillin at 37° C. while being stirred at 220 rpm until the OD600 reached 0.6. Isopropyl β-D-thiogalactoside (1 mM) was added and the cells were allowed to grow for 12 hours at 25° C. Then, the pellets were harvested by centrifugation at 4000×g for 30 minutes at 4° C. The cell pallets were resuspended in 20 mL cell lysis buffer (1×PBS buffer (pH 7.4) containing 1 mM EDTA and 0.1 mM DTT) and sonicated (14×10 s at 4° C.). The disrupted cells were centrifuged at 4000×g for 20 minutes at 4° C. The supernatant was loaded slowly on a glutathione-sepharose 4B column, which was equilibrated at 4° C. with a cell lysis buffer (1×PBS buffer (pH 7.4) containing 1 mM EDTA and 0.1 mM DTT). The column was washed with the lysis buffer until OD280 reached below 0.005. Then, 15-PGDH was eluted from the glutathione-sepharose 4B column at room temperature for 5 minutes by using the elution buffer (50 mM Tris-HCl (pH 8.0) containing 10 mM reduced glutathione, 1 mM EDTA and 0.1 mM DTT). The concentration and the purity of the purified enzyme were determined by SDS-PAGE.
<1-2> Assay for the Activities of 15-PGDH Inhibitors
The absorbance of the reaction mixture was recorded at 340 nm so that the activities of the derivatives according to the present invention as 15-PGDH inhibitors were determined from a standard curve prepared from the absorbance of various concentrations of NADH at 340 nm.

Sequence of 15-PGDH (P15428 whole entry): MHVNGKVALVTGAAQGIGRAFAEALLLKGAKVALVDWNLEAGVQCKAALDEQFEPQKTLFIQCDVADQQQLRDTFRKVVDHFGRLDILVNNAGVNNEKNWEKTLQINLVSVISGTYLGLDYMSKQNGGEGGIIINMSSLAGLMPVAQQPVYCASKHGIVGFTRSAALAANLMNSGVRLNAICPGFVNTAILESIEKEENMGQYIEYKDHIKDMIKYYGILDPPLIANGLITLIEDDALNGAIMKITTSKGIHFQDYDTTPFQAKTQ

| Compound | IC50 |
| --- | --- |
| O=C1NC(=O)/C(=C/c2cccc(OCCc3ccccn3)c2Cl)S1 [Derivative 93] | 10300 nM |
| O=C1NC(=O)C(Cc2ccc(OCC3CCCCC3)c(Cl)c2)S1 (stereo not drawn) | 526 nM |
| Cc1cc(/C=C2\SC(=O)NC2=O)ccc1OCC1CCCCC1 [Derivative 51, 5-(4-(2-cyclohexylmethoxy)-3-methylbenzylidene)thiazolidine-2,4-dione] | 49.8 nM |
| O=C1NC(=O)/C(=C/c2ccc(OCCN3CCS(=O)(=O)CC3)cc2)S1 [Derivative 5, 5-[4-(2-thiomorpholine-1,1-dioxideethoxy)benzylidene]thiazolidine-2,4-dione] | 1370 nM |
| O=C1NC(=O)/C(=C/c2ccc(OCc3ccsc3)cc2)S1 [Derivative 23, 5-(4-(thiophen-3-ylmethoxy)benzylidene)thiazolidine-2,4-dione] | 392 nM |
| O=C1NC(=O)C(Cc2ccc(OCC3CCCC3)cc2)S1 (stereo not drawn) [Derivative 115, 5-(4-(cyclopentylmethoxy)benzyl)thiazolidine-2,4-dione] | 854 nM |
| O=C1NC(=O)/C(=C/c2ccc(OCCC3CCCCC3)c([N+](=O)[O-])c2)S1 [Derivative 49, 5-(4-(2-cyclohexylethoxy)-3-nitrobenzylidene)thiazolidine-2,4-dione] | 59.5 nM |
| O=C1NC(=O)/C(=C/c2ccc(OCc3ccc(-c4ccccc4)cc3)cc2)S1 [Derivative 76, 5-(4-(biphenyl-4-ylmethoxy)benzylidene)thiazolidine-2,4-dione] | 814 nM |
| O=C1NC(=O)/C(=C/c2ccc(OCCCc3ccccc3)cc2Cl)S1 [Derivative 87, 5-(2-chloro-4-phenylpropoxybenzylidene)thiazolidine-2,4-dione] | 52 nM |
| O=C1NC(=O)C(Cc2ccc(OCc3ccc(-c4ccccc4)cc3)cc2)S1 (stereo not drawn) [Derivative 129, 5-(4-(biphenyl-4-ylmethoxy)benzyl)thiazolidine-2,4-dione] | 1080 nM |
| O=C1NC(=O)/C(=C/c2ccc(OCCCCC3CCCCC3)c(Cl)c2)S1 [Derivative 33, 5-(3-chloro-4-(4-cyclohexylbutoxy)benzylidene)thiazolidine-2,4-dione] | 26.3 nM |
| O=C1NC(=O)/C(=C/c2cccc(OCCCCC3CCCCC3)c2Cl)S1 [Derivative 100, 5-(2-chloro-3-(cyclohexylbutoxy)benzylidene)thiazolidine-2,4-dione] | 94.5 nM |
| COc1cc(/C=C2\SC(=O)NC2=O)cc(OC)c1OCCC1CCCCC1 [Derivative 10, 5-(4-(2-cyclohexylethoxy)-3,5-dimethoxybenzylidene)thiazolidine-2,4-dione] | 94.5 nM |
| O=C1NC(=O)/C(=C/c2ccc(OCc3ccco3)cc2)S1 [Derivative 25, 5-(4-(furan-2-ylmethoxy)benzylidene)thiazolidine-2,4-dione] | 1880 nM |
| O=C1NC(=O)/C(=C/c2ccc(OCCN3CCS(=O)(=O)CC3)c([N+](=O)[O-])c2)S1 [Derivative 90, 5-[3-nitro-4-(2-thiomorpholine1,1-Dioxideethoxy)benzylidene]-2,4-thiazolidinedione] | 2450 nM |
| COc1ccc(/C=C2\SC(=O)NC2=O)cc1OCCC1CCCCC1 [Derivative 67, 5-(3-(2-cyclohexylethoxy)-4-methoxybenzylidene)thiazolidine-2,4-dione] | 1160 nM |
| COC(=O)C1CCC(COc2ccc(/C=C3\SC(=O)NC3=O)cc2)CC1 (stereo not drawn) [Derivative 66, methyl-4-((4-((2,4-dioxothiazolidine-5-ylidene)methyl)phenoxy)methyl)cyclohexane carboxylate] | 20.4 nM |
| O=C1NC(=O)/C(=C/c2ccc(OCCc3ccsc3)cc2)S1 [Derivative 4, 5-(4-(2-(thiophen-3-yl)ethoxy)benzylidene)thiazolidine-2,4-dione] | 148 nM |
| O=C1NC(=O)/C(=C/c2cccc(OCC3CCCCC3)c2Cl)S1 [Derivative 63, 5-(2-chloro-3-(cyclohexylmethoxy)benzylidene)thiazolidine-2,4-dione] | 57.6 nM |
| O=C1NC(=O)/C(=C/c2ccc(OCc3cccs3)cc2)S1 [Derivative 22, 5-(4-(thiophen-2-ylmethoxy)benzylidene)thiazolidine-2,4-dione] | 251 nM |
| COc1cc(/C=C2\SC(=O)NC2=O)ccc1OCCc1cccs1 [Derivative 102, 5-(3-methoxy-4-(2-(thiophen-2-yl)ethoxy)benzylidene)thiazolidine-2,4-dione] | 682 nM |

| Compound | IC50 |
| --- | --- |
| O=C1NC(=O)/C(=C/c2ccc(OCCCN3CCS(=O)(=O)CC3)cc2)S1 [Derivative 21, 5-[4-(3-thiomorpholine-1,1-dioxidepropoxy)benzylidene]-thiazolidine-2,4-dione] | 3040 nM |
| O=C1NC(=O)/C(=C/c2ccc(OCc3ccccc3)cc2Cl)S1 [Derivative 85, 5-(4-(benzyloxy)-2-chlorobenzylidene)thiazolidine-2,4-dione] | 487 nM |
| O=C1NC(=O)/C(=C/c2ccc(OC3CCCCC3)cc2)S1 [Derivative 45, 5-(4-(cyclohexyloxy)benzylidene)thiazolidine-2,4-dione] | 822 nM |
| O=C1NC(=O)/C(=C/c2ccc(OCCC3CCCCC3)c(C(F)(F)F)c2)S1 [Derivative 16, 5-(4-(2-cyclohexylethoxy)-3-(trifluoromethyl)benzylidene)thiazolidine-2,4-dione] | 71.9 nM |
| CC1(COc2ccc(/C=C3\SC(=O)NC3=O)cc2)CCCCC1 [Derivative 43, 5-(4-((1-methylcyclohexyl)methoxy)benzylidene)thiazolidine-2,4-dione] | 547 nM |
| COc1cc(/C=C2\SC(=O)NC2=O)ccc1OCCC1CCCCC1 [Derivative 8, 5-(4-(2-cyclohexylethoxy)-3-methoxybenzylidene)thiazolidine-2,4-dione] | 23 nM |
| O=C1NC(=O)C(Cc2ccc(OCC3CCCCC3)cc2)S1 (stereo not drawn) [Derivative 114, 5-(4-(cyclohexylmethoxy)benzyl)thiazolidine-2,4-dione] | 4060 nM |
| Nc1cc(/C=C2\SC(=O)NC2=O)ccc1OCCC1CCCCC1 [Derivative 50, 5-(3-amino-4-(2-cyclohexylethoxy)benzylidene)thiazolidine-2,4-dione] | 286 nM |
| O=C1NC(=O)/C(=C/c2cccc(OCCC3CCCCC3)c2Cl)S1 [Derivative 34, 5-(2-chloro-3-(2-cyclohexylethoxy)benzylidene)thiazolidine-2,4-dione] | 17.9 nM |
| COc1ccc(/C=C2\SC(=O)NC2=O)cc1 [Derivative 40, 5-(4-methoxybenzylidene)thiazolidine-2,4-dione] | 5670 nM |
| O=C1NC(=O)/C(=C/c2ccc(OCc3ccc4c(c3)OCO4)cc2)S1 [Derivative 29, 5-(4-(benzo[d][1,3]dioxol-5-ylmethoxy)benzylidene)thiazolidine-2,4-dione] | 310 nM |
| Cc1ccc(COc2ccc(/C=C3\SC(=O)NC3=O)cc2)cc1 [Derivative 27, 5-(4-(4-methylbenzyloxy)benzylidene)thiazolidine-2,4-dione] | 255 nM |
| O=C1NC(=O)/C(=C/c2ccc(OCCN3CCCCC3)cc2)S1 [Derivative 14, 5-(4-(2-(piperidin-1-yl)ethoxy)benzylidene)thiazolidine-2,4-dione] | 1430 nM |
| O=C1NC(=O)/C(=C/c2ccc(OCC3COc4ccccc4O3)cc2)S1 (stereo not drawn) [Derivative 62, 5-(4-((2,3-Dihydrobenzo[b][1,4]dioxin-2-yl)methoxy)benzylidene) thiazolidine-2,4-dione] | 172 nM |
| O=C1NC(=O)/C(=C/c2cccc(OCc3ccc([N+](=O)[O-])cc3)c2Cl)S1 [Derivative 109, 5-(2-chloro-3-(4-nitrobenzyloxy)benzylidene)thiazolidine-2,4-dione] | 11700 nM |
| O=C1NC(=O)/C(=C/c2ccc(OC3CCCCC3)c(Cl)c2)S1 [Derivative 30, 5-(3-chloro-4-(cyclohexyloxy)benzylidene)thiazolidine-2,4-dione] | 48.9 nM |
| O=C1NC(=O)/C(=C/c2ccc(OCCC3CCCCC3)cc2C(F)(F)F)S1 [Derivative 81, 5-(4-(2-cyclohexylethoxy)-2-(trifluoromethyl)benzylidene)thiazolidine-2,4-dione] | 136 nM |
| O=C1NC(=O)/C(=C/c2ccc(OCCc3ccccc3)cc2Cl)S1 [Derivative 86, 5-(2-chloro-4-phenylethoxybenzylidene)thiazolidine-2,4-dione] | 178 nM |
| O=C1NC(=O)/C(=C/c2ccc(OCCCc3ccccc3)c(Cl)c2)S1 [Derivative 70, 5-(3-chloro-4-(3-phenylpropoxy)benzylidene)thiazolidine-2,4-dione] | 38.1 nM |
| O=C1NC(=O)/C(=C/c2cc(OCCC3CCCCC3)ccc2[N+](=O)[O-])S1 [Derivative 83, 5-(5-(2-cyclohexylethoxy)-2-nitrobenzylidene)thiazolidine-2,4-dione] | 6280 nM |
| CC1CCC(COc2ccc(/C=C3\SC(=O)NC3=O)cc2)CC1 (stereo not drawn) [Derivative 37, 5-(4-((4-methylcyclohexyl)methoxy)benzylidene)thiazolidine-2,4-dione] | 66.4 nM |
